According to patent publication US9333210B2, “Medicine composition containing vitamin D and metformin” (GUANGDONG TAIHE MEDICINE SCIENCE & TECHNOLOGY CO., LTD, priority 2011, dated 2016):
Counter-ions that a name gives are not always drawn.

What was measured:
[1] = test system: Wistar rats with dimethyl hydrazine-induced colorectal cancer; experiment: Aberrant crypt foci (ACF) count in dimethyl hydrazine-induced colorectal cancer rats (Example 1); format: in vivo; conditions: for ACF AC = 1 / ACF AC = 2 / ACF AC = 3 / ACF AC ≧ 4 / The total number of ACF: DMH rats, week 18; for inhibitory effect on ACF, trend with dose: low, medium, high dose groups, end of week 18
Excerpt: (§1) Wistar rats with dimethyl hydrazine-induced colorectal cancer were used as the model to study the chemoprevention by the combined administration of vitamin D3 and metformin hydrochloride for colorectal cancer and the effect on colorectal cancer.
(§2) Experimental animals were randomly divided into 11 groups (each group having 10), including blank control group, model control group, low, medium and high dose groups of vitamin D3, low, medium and high dose groups of metformin, and three groups of different doses of vitamin D3 in combination with metformin. Except for the blank control group, other groups were subcutaneously injected with dimethyl hydrazine once a week respectively for 18 weeks, to induce colorectal cancer model. Dimethylhydrazine was dissolved in sodium chloride injection, and into the solution, 5% NaOH solution was added to adjust pH to 6.5-7.0, thereby obtaining a 20 mg/ml solution. The resulting solution was filtered through 0.22 μm membrane, and prepared extemporaneously.
(§3) Vitamin D3 was prepared into 10-100 U/ml solution by using soybean oil, and intragastrically administrated, once a day. Metformin was prepare into 10-100 mg/ml solution, and administrated intragastrically, once a day. The above drugs were administrated from day 0.
(§4) All the animals were sacrificed at the end of 18th weeks after administration. Body weights were recorded once a week during the experiment, and the administrated dose was calculated based on the body weight. The animals that died during the experiment were dissected and observed.
(§5) 3.2.2 The large intestine was separated immediately after the animals were sacrificed, the contents of the intestine were washed away with saline, and colorectal tumors were visually observed to calculate the number of tumors. The entire colon was paved between two layers of filter paper, placed in 10% neutral formalin and fixed for 24-48 h. The fixed large intestine tissue was put into 0.2% methylene blue and stained for 10 s. The aberrant crypt foci (ACF) of the whole large intestine were immediately observed under an optical microscope, and the number of the aberrant crypt in foci was counted respectively as one, two, three and four as well as greater than four.
(§6) 3.2.3 The data were processed by using Excel 2003 software for statistical analysis, and the obtained data were represented by mean±standard deviation (mean±SD). P<0.05 means that there is statistically significant difference between two groups.

[2] = test system: Wistar rats with dimethyl hydrazine-induced colorectal cancer; experiment: Tumorigenesis and tumor inhibition rate in dimethyl hydrazine-induced colorectal cancer rats (Example 1); format: in vivo; conditions: for Mean number of tumors / Number of Animals with tumor: DMH rats; for Mean number of tumors / Number of Animals with tumor / Inhibition rate(%): week 18; for Number of Animals with tumor: of 10 animals; for Inhibition rate(%): tumor number vs model control
Excerpt: as §1, §2, §3, §4, §5, §6

[3] = test system: Wistar rats with dimethyl hydrazine-induced colorectal cancer; experiment: Tumorigenesis and inhibition rate, drugs administrated from day 15 (Example 9); format: in vivo; conditions: drugs from day 15
Protocol: Example 1 was repeated, except that: The experimental animals were randomly divided into 11 groups, with 8 in each group. Except for the blank control group, other groups were subcutaneously injected of dimethylhydrazine once a week for 18 weeks to induce colorectal cancer model. Vitamin D3 was prepared into 10-100 U/ml solution by using soybean oil, and intragastrically administrated, once a day. Metformin was prepare into 10-100 mg/ml solution, and administrated orally, once a day. The above drugs were administrated from day 15 (after two weeks). During the experiments, tumorigenesis and inhibition rate were observed.

[4] = General situation and body weight of the rats (Example 1); conditions: DMH rats; for Weight gain: after 18 weeks; for Body weight Week 0: baseline
Excerpt: as §2, §3, §4
3.2.1 The animals were observed daily to record the general conditions, such as mental activity, food-taking, feces, hair, and the like.

[5] = high dose group, metformin hydrochloride 360 mg/kg intragastrically once a day
[6] = low dose group, metformin hydrochloride 40 mg/kg intragastrically once a day
[7] = medium dose group, metformin hydrochloride 120 mg/kg intragastrically once a day
[8] = low, medium, high dose groups, end of week 18
[9] = high dose group, Vitamin D 300 U/kg intragastrically once a day
[10] = low dose group, Vitamin D 30 U/kg intragastrically once a day
[11] = medium dose group, Vitamin D 100 U/kg intragastrically once a day
[12] = medium dose group and high dose group, P<0.01

CN(C)C(=N)N=C(N)N [metformin, metformin hydrochloride]
ACF AC = 1 [1, 5]: 61.5 ± 8.1
ACF AC = 2 [1, 5]: 13.8 ± 3.4
ACF AC = 3 [1, 5]: 4.0 ± 1.2
ACF AC ≧ 4 [1, 5]: 9.7 ± 3.2
The total number of ACF [1, 5]: 89.0 ± 12.7
ACF AC = 1 [1, 6]: 70.4 ± 10.6
ACF AC = 2 [1, 6]: 16.7 ± 3.6
ACF AC = 3 [1, 6]: 6.7 ± 1.7
ACF AC ≧ 4 [1, 6]: 16.5 ± 2.1
The total number of ACF [1, 6]: 110.3 ± 13.0
inhibitory effect on ACF, trend with dose [1]: same trend
ACF AC = 1 [1, 7]: 57.0 ± 10.7
ACF AC = 2 [1, 7]: 16.6 ± 1.8
ACF AC = 3 [1, 7]: 5.4 ± 1.6
ACF AC ≧ 4 [1, 7]: 14.8 ± 3.0
The total number of ACF [1, 7]: 93.8 ± 11.7
Mean number of tumors [2, 5]: 1.6 ± 0.5
Mean number of tumors [2, 6]: 2.0 ± 0.7
number of tumors, trend with dose [2, 8]: reduced with the increase of dose
Mean number of tumors [2, 7]: 1.8 ± 0.4
Number of Animals with tumor [2, 5]: 10
Number of Animals with tumor [2, 6]: 10
Number of Animals with tumor [2, 7]: 10
Inhibition rate(%) [2, 5]: 42.9%
Inhibition rate(%) [2, 6]: 28.6%
Inhibition rate(%) [2, 7]: 35.7%
number of tumors, trend with dose ([3]; end of week 18): reduced with the increase of dose

C=C1CC[C@H](O)C/C1=C/C=C1\CCC[C@]2(C)[C@@H]([C@H](C)CCCC(C)C)CC[C@@H]12 [vitamin D3, Vitamin D3]
ACF AC = 1 [1, 9]: 61.8 ± 11.1
ACF AC = 2 [1, 9]: 14.9 ± 5.9
ACF AC = 3 [1, 9]: 5.0 ± 1.6
ACF AC ≧ 4 [1, 9]: 9.8 ± 2.2
The total number of ACF [1, 9]: 91.5 ± 7.2
ACF AC = 1 [1, 10]: 80.5 ± 7.6
ACF AC = 2 [1, 10]: 16.1 ± 5.7
ACF AC = 3 [1, 10]: 9.0 ± 2.3
ACF AC ≧ 4 [1, 10]: 20.0 ± 4.1
The total number of ACF [1, 10]: 125.6 ± 12.1
inhibitory effect on ACF, trend with dose [1]: increased with the increase of dose
ACF AC = 1 [1, 11]: 67.9 ± 11.8
ACF AC = 2 [1, 11]: 15.9 ± 5.7
ACF AC = 3 [1, 11]: 4.8 ± 3.1
ACF AC ≧ 4 [1, 11]: 16.1 ± 2.9
The total number of ACF [1, 11]: 104.7 ± 14.3
Mean number of tumors [2, 9]: 1.4 ± 0.8
Mean number of tumors [2, 10]: 2.3 ± 0.5
inhibition rate for tumor, trend with dose [2, 8]: increased with the increase of dose
number of tumors compared with the model control group [2, 12]: significantly reduced
Mean number of tumors [2, 11]: 1.7 ± 0.7
Number of Animals with tumor [2, 9]: 8
Number of Animals with tumor [2, 10]: 10
Number of Animals with tumor [2, 11]: 10
Inhibition rate(%) [2, 9]: 50.0%
Inhibition rate(%) [2, 10]: 17.9%
Inhibition rate(%) [2, 11]: 39.3%
Weight gain [4, 9]: 225.7%
Weight gain [4, 10]: 227.7%
Weight gain [4, 11]: 235.7%
Body weight Week 18 [4, 9]: 328.8 ± 23.6
Body weight Week 0 [4, 9]: 101.5 ± 5.2
Body weight Week 18 [4, 10]: 377.5 ± 27.5
Body weight Week 0 [4, 10]: 100.3 ± 4.1
Body weight Week 18 [4, 11]: 294.3 ± 22.1
Body weight Week 0 [4, 11]: 102.9 ± 5.8
inhibition rate for tumor, trend with dose ([3]; end of week 18): increased with the increased of dose
tumor number compared with the model control group [3, 12]: significantly reduced
